Experiment: xn = mol fraction of the nth substance listed
Conditions: Liquid; for speed of sound: Frequency=3 MHz, Pulse-echo method; for mass density: Vibrating tube method

CCCCCCCCCCCC [dodecane] + O=C=O
Conditions | mass density, 303.15 K [kg/m3] | mass density, 313.15 K [kg/m3] | speed of sound, 303.15 K [m/s] | speed of sound, 313.15 K [m/s]
10000 kPa, x2 = 0 | 748.5 | 741.6 | 1318.5 | 1281.7
10000 kPa, x2 = 0.2032 | – | – | 1245.6 | 1209.7
10000 kPa, x2 = 0.205 | 756.3 | 748.8 | – | –
10000 kPa, x2 = 0.3989 | – | – | 1152.2 | 1114.6
10000 kPa, x2 = 0.4 | 767.4 | 758.7 | – | –
10000 kPa, x2 = 0.6007 | – | – | 1011.6 | 969.6
10000 kPa, x2 = 0.6008 | 784.3 | 773.3 | – | –
10000 kPa, x2 = 0.7497 | 802.5 | 786.6 | – | –
10000 kPa, x2 = 0.7498 | – | – | 845.5 | 793.2
10000 kPa, x2 = 0.8528 | – | – | 680.5 | 630
10000 kPa, x2 = 0.853 | 815.6 | 790.9 | – | –
10000 kPa, x2 = 0.9348 | 817.8 | 771.4 | – | –
10000 kPa, x2 = 0.9771 | 801 | 721.2 | – | –
10000 kPa, x2 = 0.9877 | 790.6 | 689.4 | – | –
20000 kPa, x2 = 0 | 755.1 | 748.5 | 1372.4 | 1337.9
20000 kPa, x2 = 0.2032 | – | – | 1304.1 | 1269.6
20000 kPa, x2 = 0.205 | 763.6 | 756.5 | – | –
20000 kPa, x2 = 0.3989 | – | – | 1214.9 | 1180.3
20000 kPa, x2 = 0.4 | 776.3 | 768.1 | – | –
20000 kPa, x2 = 0.6007 | – | – | 1084.4 | 1046.4
20000 kPa, x2 = 0.6008 | 796.3 | 786.1 | – | –
20000 kPa, x2 = 0.7497 | 820.5 | 806.5 | – | –
20000 kPa, x2 = 0.7498 | – | – | 937 | 893.3
20000 kPa, x2 = 0.8528 | – | – | 800.1 | 751.2
20000 kPa, x2 = 0.853 | 844.1 | 824.1 | – | –
20000 kPa, x2 = 0.9348 | 868.5 | 838.9 | – | –
20000 kPa, x2 = 0.9771 | 883.1 | 842 | – | –
20000 kPa, x2 = 0.9877 | 887.1 | 841.4 | – | –
30000 kPa, x2 = 0 | 761.3 | 754.8 | 1421.4 | 1389.6
30000 kPa, x2 = 0.2032 | – | – | 1356.4 | 1322.9
30000 kPa, x2 = 0.205 | 770.5 | 763.6 | – | –
30000 kPa, x2 = 0.3989 | – | – | 1272 | 1238.8
30000 kPa, x2 = 0.4 | 784.3 | 776.4 | – | –
30000 kPa, x2 = 0.6007 | – | – | 1147.4 | 1112.9
30000 kPa, x2 = 0.6008 | 806.8 | 797.2 | – | –
30000 kPa, x2 = 0.7497 | 835.2 | 822.5 | – | –
30000 kPa, x2 = 0.7498 | – | – | 1010.4 | 971.4
30000 kPa, x2 = 0.8528 | – | – | 885.8 | 843.1
30000 kPa, x2 = 0.853 | 865.6 | 847.6 | – | –
30000 kPa, x2 = 0.9348 | 902.4 | 877.6 | – | –
30000 kPa, x2 = 0.9771 | 929.5 | 897.3 | – | –
30000 kPa, x2 = 0.9877 | 937.7 | 902.7 | – | –
40000 kPa, x2 = 0 | 766.9 | 760.8 | 1468.5 | 1436.8
40000 kPa, x2 = 0.2032 | – | – | 1404.4 | 1373.3
40000 kPa, x2 = 0.205 | 776.8 | 770.3 | – | –
40000 kPa, x2 = 0.3989 | – | – | 1323 | 1291
40000 kPa, x2 = 0.4 | 791.6 | 784.2 | – | –
40000 kPa, x2 = 0.6007 | – | – | 1204.4 | 1170.9
40000 kPa, x2 = 0.6008 | 816 | 807.2 | – | –
40000 kPa, x2 = 0.7497 | 847.6 | 836.1 | – | –
40000 kPa, x2 = 0.7498 | – | – | 1073.3 | 1037.1
40000 kPa, x2 = 0.8528 | – | – | 955.4 | 917.2
40000 kPa, x2 = 0.853 | 883.1 | 866.6 | – | –
40000 kPa, x2 = 0.9348 | 928.1 | 906.5 | – | –
40000 kPa, x2 = 0.9771 | 963.1 | 935.9 | – | –
40000 kPa, x2 = 0.9877 | 973.9 | 944.5 | – | –
50000 kPa, x2 = 0 | 772 | 766.3 | 1512.3 | 1481.5
50000 kPa, x2 = 0.2032 | – | – | 1449.9 | 1419.2
50000 kPa, x2 = 0.205 | 782.5 | 776.4 | – | –
50000 kPa, x2 = 0.3989 | – | – | 1370.3 | 1339.9
50000 kPa, x2 = 0.4 | 798.2 | 791.2 | – | –
50000 kPa, x2 = 0.6007 | – | – | 1256 | 1224.3
50000 kPa, x2 = 0.6008 | 824.4 | 816.1 | – | –
50000 kPa, x2 = 0.7497 | 858.7 | 848 | – | –
50000 kPa, x2 = 0.7498 | – | – | 1128.9 | 1095.2
50000 kPa, x2 = 0.8528 | – | – | 1015.3 | 979.7
50000 kPa, x2 = 0.853 | 898.1 | 882.5 | – | –
50000 kPa, x2 = 0.9348 | 950.3 | 929.7 | – | –
50000 kPa, x2 = 0.9771 | 990.1 | 965.6 | – | –
50000 kPa, x2 = 0.9877 | 1002.9 | 976.7 | – | –
60000 kPa, x2 = 0 | 776.8 | 771.5 | 1553.7 | 1524.2
60000 kPa, x2 = 0.2032 | – | – | 1492.5 | 1462.4
60000 kPa, x2 = 0.205 | 787.9 | 782.1 | – | –
60000 kPa, x2 = 0.3989 | – | – | 1414.9 | 1385.2
60000 kPa, x2 = 0.4 | 804.4 | 797.6 | – | –
60000 kPa, x2 = 0.6007 | – | – | 1303.2 | 1272.9
60000 kPa, x2 = 0.6008 | 832.1 | 824.2 | – | –
60000 kPa, x2 = 0.7497 | 868.7 | 858.7 | – | –
60000 kPa, x2 = 0.7498 | – | – | 1179.5 | 1147
60000 kPa, x2 = 0.8528 | – | – | 1068.3 | 1034.9
60000 kPa, x2 = 0.853 | 911.4 | 896.4 | – | –
60000 kPa, x2 = 0.9348 | 967.4 | 949.4 | – | –
60000 kPa, x2 = 0.9771 | 1012.8 | 990.3 | – | –
60000 kPa, x2 = 0.9877 | 1027.1 | 1003.1 | – | –
70000 kPa, x2 = 0 | 781.4 | 776.4 | 1593.3 | 1564.6
70000 kPa, x2 = 0.2032 | – | – | 1532.6 | 1503.9
70000 kPa, x2 = 0.205 | 793.2 | 787.4 | – | –
70000 kPa, x2 = 0.3989 | – | – | 1456.7 | 1427.5
70000 kPa, x2 = 0.4 | 810.2 | 803.6 | – | –
70000 kPa, x2 = 0.6007 | – | – | 1346.4 | 1317.9
70000 kPa, x2 = 0.6008 | 839.3 | 831.6 | – | –
70000 kPa, x2 = 0.7497 | 878 | 868.2 | – | –
70000 kPa, x2 = 0.7498 | – | – | 1225.4 | 1195.2
70000 kPa, x2 = 0.8528 | – | – | 1116.7 | 1084.8
70000 kPa, x2 = 0.853 | 923.3 | 908.7 | – | –
70000 kPa, x2 = 0.9348 | 983.5 | 966.6 | – | –
70000 kPa, x2 = 0.9771 | 1032.6 | 1011.6 | – | –
70000 kPa, x2 = 0.9877 | 1048.1 | 1025.8 | – | –
